Like-named read-outs stand apart in the source and are kept apart here.

This is an account of results in patent US11691968B2, “Compound having KDM5 inhibitory activity and pharmaceutical use thereof” (ONO PHARMACEUTICAL CO., LTD., priority 2020, dated 2023).

Series [1] deals with KDM5A (Homo sapiens (Human), UniProt P29375). Kind of series: Biochemical KDM5A Inhibition Assay (HTRF). Conditions: KDM5A protein, biotin-labelled H3K4-Me3 substrate. The protocol: Biochemical KDM5A Inhibition Assay
Using 384-well white Greiner784075 (Greiner), representative compounds were characterized for their inhibition of KDM5A using HTRF® technology (Cisbio Bioassays). Briefly, the test compounds, reference compounds, and DMSO control (typical compound concentration range 1 μM-[…], final assay concentration (FAC*) of DMSO 0.5%) were added to 384-well plate by the Echo® acoustic dispensing platform (Labcyte). Five (5) 1l of KDM5A protein (produced by the method described in Nat Chem Biol 12, 531-538 (2016)). (5-20 nM FAC*) in assay buffer (50 mM MES, 50 mM NaCl, 1 mM TCEP, 0.01% v/v Tween 20, 0.03% BSA, pH 6.5) was added to wells and plates were incubated for 10-20 minutes at 25 degrees celsius. Then, 5 μl of alpha-ketoglutaric acid (100 μM FAC*), biotin-labelled H3K4-Me3 substrate (Anaspec Cat #AS-64357-1; 200 nM FAC*), Fe(II)SO4 (100 μM FAC*) and ascorbic acid (2 mM FAC*) in assay buffer was added to wells and plates were incubated for 20 minutes at room temperature. The reaction was stopped with the addition of 10 μl of anti-H3K4-Me2-Eu(K) (Cisbio Bioassays Cat #61KA2KAH; 0.75 nM FAC**)+Streptavidin XL665 (Cisbio Bioassays Cat #610SAXLB; 25 nM FAC**) in HTRF detection buffer (Cisbio Bioassays Cat #62SDBRDF). The mixture was incubated for 30 minutes at room temperature before 340 nm excitation and measurement of dual emission at 620 nm and 665 run. *FAC: final assay concentration calculated based on 10 μl of the assay buffer**FAC: final assay concentration calculated based on 20 μl of the detection buffer
The raw data (a 665 nm and a 620 nm reading from each well) for individual assay plates were analyzed. The ratio of emissions was calculated using the following calculation: Ratio=(665 nm emission/620 nm emission)×10000. […] Compound IC50 values were calculated from graphs of % inhibition plotted against compound concentration, using a four parameter curve fit. [Results]
(In general: Time-resolved FRET reads energy transfer from a long-lived donor to a nearby acceptor.)

Series [2] can be described thus: Metabolic Stability in Human Liver Microsomes. In kind it is in vitro ADME. As to the method: Metabolic Stability in Human Liver Microsomes
Human liver microsome (BD Gentest Corporation, Cat No. #452161) incubations were conducted in duplicate in 96-well plates. Each well contains 40 μL of 0.1 M potassium phosphate buffer (pH 7.4), 4.125 mM MgCl2, 0.625 mg/mL liver microsomes, and test compound (1.25 μM). After 5-min preincubation at 37° C., 10 uL of 5.0 mM NADPH in 0.1M potassium phosphate buffer was added to initiate the enzymatic reaction. The final component concentrations are 0.1M potassium phosphate buffer (pH 7.4), 1.0 mM NADPH, 3.3 mM MgCl2, 0.5 mg/mL liver microsomes, and test compound (1.0 μM). Reactions were terminated at 0 and 60 min by adding 200 μL of ice-cold acetonitrile containing internal standard.
LC-MS/MS analysis was conducted as specified below.
The remaining at 60 min (%) of test compound was calculated from the peak area ratio (test compound/internal standard) of samples collected 0 and 60 min after the start of the reaction according to the formula described below. Remaining at 60 min (%)=peak area ratio of sample collected at 60 min/peak area ratio of sample collected at 0 min×100 [Results]

Series [3] can be described thus: Brain Concentration in Mice. It counts as in vivo. Conditions: mouse, mice (C57BL/6), read-out: Unbound-Brain Concentration at 2 h at 1 mg/kg. As to the method:
Brain Concentration in Mice
Test compounds were orally administered to mice (C57BL/6) at 1 or 3 mg/kg. Brain samples were collected 2 h after the administration and homogenized with 3-fold volumes of distilled water.
LC-MS/MS analysis was conducted as specified below. Standard calibration samples were prepared using the same matrix and analyzed in the same manner.
Standard calibration samples were analyzed to calculate a regression equation from the peak area ratio (test compound/internal standard). The peak area ratio was determined for a measurement sample and assigned to the regression equation to calculate an assay value.

Where [4] appears, read: human, microsomes, 1 h, 1 μM, pH 7.4.
Where [5] appears, read: brain, oral, 2 h, values with * obtained by proportional calculation from the 3 mg/kg data.
The mark [6] stands for this setting: po, orally administered, 1 mg/kg, brain 2 h after administration.
Where [7] appears, read: 0.5 mg/mL liver microsomes, 1.0 μM test compound, 1.0 mM NADPH, 37° C., 60 min.

Chain of KDM5A (P29375 whole entry): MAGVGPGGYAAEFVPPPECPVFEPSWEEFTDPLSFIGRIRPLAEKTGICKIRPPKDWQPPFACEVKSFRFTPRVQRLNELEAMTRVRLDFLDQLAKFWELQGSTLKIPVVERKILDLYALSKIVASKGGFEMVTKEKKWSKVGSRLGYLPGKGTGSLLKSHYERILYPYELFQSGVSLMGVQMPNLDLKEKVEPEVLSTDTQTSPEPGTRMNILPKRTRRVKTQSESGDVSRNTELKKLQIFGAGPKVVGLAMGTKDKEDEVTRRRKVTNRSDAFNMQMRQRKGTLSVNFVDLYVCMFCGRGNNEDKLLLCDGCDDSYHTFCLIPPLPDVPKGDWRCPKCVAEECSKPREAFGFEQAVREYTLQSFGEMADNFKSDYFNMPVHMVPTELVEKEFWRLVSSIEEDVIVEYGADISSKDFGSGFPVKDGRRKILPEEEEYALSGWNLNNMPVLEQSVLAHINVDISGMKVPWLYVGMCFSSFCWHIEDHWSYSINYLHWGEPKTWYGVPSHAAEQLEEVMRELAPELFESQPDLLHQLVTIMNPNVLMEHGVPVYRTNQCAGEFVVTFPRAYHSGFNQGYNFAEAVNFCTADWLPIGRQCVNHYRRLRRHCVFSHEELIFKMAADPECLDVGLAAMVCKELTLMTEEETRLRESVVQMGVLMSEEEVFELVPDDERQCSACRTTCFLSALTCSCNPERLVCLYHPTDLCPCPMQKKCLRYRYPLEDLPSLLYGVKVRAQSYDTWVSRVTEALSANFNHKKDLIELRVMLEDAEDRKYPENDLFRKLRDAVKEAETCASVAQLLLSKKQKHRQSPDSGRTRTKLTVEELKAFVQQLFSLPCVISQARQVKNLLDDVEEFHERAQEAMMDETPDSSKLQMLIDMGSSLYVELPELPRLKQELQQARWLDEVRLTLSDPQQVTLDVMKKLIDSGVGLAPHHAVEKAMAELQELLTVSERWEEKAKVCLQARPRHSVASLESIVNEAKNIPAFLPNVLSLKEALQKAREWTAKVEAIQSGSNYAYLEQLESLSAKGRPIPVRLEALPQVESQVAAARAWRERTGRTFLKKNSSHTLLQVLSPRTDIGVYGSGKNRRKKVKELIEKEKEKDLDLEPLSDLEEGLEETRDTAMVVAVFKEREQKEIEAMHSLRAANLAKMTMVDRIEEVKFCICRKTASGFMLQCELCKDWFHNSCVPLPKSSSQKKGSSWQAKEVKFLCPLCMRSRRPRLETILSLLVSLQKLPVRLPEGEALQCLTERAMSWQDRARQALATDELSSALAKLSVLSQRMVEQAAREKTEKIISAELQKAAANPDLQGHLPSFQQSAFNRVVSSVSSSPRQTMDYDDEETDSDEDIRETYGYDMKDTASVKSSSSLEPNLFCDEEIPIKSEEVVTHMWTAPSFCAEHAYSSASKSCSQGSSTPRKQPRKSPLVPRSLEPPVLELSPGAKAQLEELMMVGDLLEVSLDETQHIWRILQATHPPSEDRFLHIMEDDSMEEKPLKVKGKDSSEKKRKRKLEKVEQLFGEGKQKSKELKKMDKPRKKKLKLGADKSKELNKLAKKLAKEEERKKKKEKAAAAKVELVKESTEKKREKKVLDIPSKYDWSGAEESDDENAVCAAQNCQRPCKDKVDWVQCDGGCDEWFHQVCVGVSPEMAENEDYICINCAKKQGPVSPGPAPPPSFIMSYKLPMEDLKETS

A word on the IC50: it is the concentration that inhibits the measured activity by half. A lower IC50 goes with higher potency. Regarding `CC(C)n1cnc(C(=O)N2C[C@@H]3[C@H](C2)[C@H]3C2=NOC(C)(C)C2)c1` [Example 1, [(1R,5S,6r)-6-(5,5-dimethyl-4,5-dihydro-1,2-oxazol-3-yl)-3-azabicyclo[3.1.0]hex-3-yl](1-isopropyl-1H-imidazol-4-yl)methanone], in series [1], the midpoint of inhibition, the IC50, lay at 20 nM. Further, in series [2] (setting [4]), the “Metabolic stability in human liver microsomes (% remaining at 60 min)” value (“Metabolic stability … (% remaining at 60 min)” below) is 95%. In addition, in series [3] (setting [5]), the concentration at 2 h is 93.7 ng/g.
Compound `CC1(C)CC([C@H]2[C@@H]3CN(C(=O)c4cn(C5(C)CC5)cn4)C[C@@H]32)=NO1` [Example 33, [(1R,5S,6r)-6-(5,5-dimethyl-4,5-dihydro-1,2-oxazol-3-yl)-3-azabicyclo[3.1.0]hex-3-yl][1-(1-methylcyclopropyl)-1H-imidazol-4-yl]methanone] came in with an IC50 in series [1] of 30 nM. Besides, in series [2] (setting [4]), the “Metabolic stability … (% remaining at 60 min)” value was found to be 103%. For the same compound, the concentration at 2 h in series [3] (setting [6]) is 62.1 ng/g.
Turning to `C[C@]1(C2=NOC3(CC3)C2)[C@@H]2CN(C(=O)c3cn(C4CC4)cn3)C[C@@H]21` [Example 85, (1-cyclopropyl-1H-imidazol-4-yl)[(1R,5S,6r)-6-methyl-6-(4-oxa-5-azaspiro[2.4]hept-5-en-6-yl)-3-azabicyclo[3.1.0]hex-3-yl]methanone], half-maximal inhibition in series [1] (IC50) required 20 nM. In series [2] (setting [7]), the “Metabolic stability … (% remaining at 60 min)” value is recorded as 98%. Besides, the concentration at 2 h in series [3] (setting [6]) is 76.7 ng/g.
`CC(C)n1cnc(C(=O)N2C[C@@H]3[C@H](C2)[C@@]3(C)C2=NOC(C)(C)C2)c1` [Example 81, [(1R,5S,6r)-6-(5,5-dimethyl-4,5-dihydro-1,2-oxazol-3-yl)-6-methyl-3-azabicyclo[3.1.0]hex-3-yl](1-isopropyl-1H-imidazol-4-yl)methanone] returned an IC50 in series [1] of 60 nM. Also, in series [2] (setting [4]), the “Metabolic stability … (% remaining at 60 min)” value was found to be 100%. The concentration at 2 h in series [3] (setting [6]) was determined as 21.9 ng/g.
Taken in the same sequence, the figures for `CC1(C)CC([C@@]2(C)[C@@H]3CN(C(=O)c4cn(C5CC5)cn4)C[C@@H]32)=NO1` [Example 82, (1-cyclopropyl-1H-imidazol-4-yl)[(1R,5S,6r)-6-(5,5-dimethyl-4,5-dihydro-1,2-oxazol-3-yl)-6-methyl-3-azabicyclo[3.1.0]hex-3-yl]methanone] were 30 nM, 104% and 57.4 ng/g.
In series [1], `O=C(c1cn(C2CC2)cn1)N1C[C@@H]2[C@H](C1)[C@H]2C1=NOC2(CC2)C1` [Example 51, (1-cyclopropyl-1H-imidazol-4-yl)[(1R,5S,6r)-6-(4-oxa-5-azaspiro[2.4]hept-5-en-6-yl)-3-azabicyclo[3.1.0]hex-3-yl]methanone] gave a 50% inhibitory concentration (IC50) of 20 nM. In series [2] (setting [7]), the “Metabolic stability … (% remaining at 60 min)” value stood at 95%. Further, in series [3] (setting [6]), the concentration at 2 h was determined as 55.3 ng/g.
In turn, `CC(C)c1cc(C(=O)N2C[C@@H]3[C@H](C2)[C@H]3C2=NOC(C)(C)C2)n[nH]1` [Example 88, [(1R,5S,6r)-6-(5,5-dimethyl-4,5-dihydro-1,2-oxazol-3-yl)-3-azabicyclo[3.1.0]hex-3-yl](5-isopropyl-1H-pyrazol-3-yl)methanone] gave an IC50 in series [1] of 70 nM. Moreover, the “Metabolic stability … (% remaining at 60 min)” value in series [2] (setting [4]) came out at 95%. For the same compound, in series [3] (setting [5]), the concentration at 2 h was 39.5 ng/g.
